Results taken from patent US20230210757A1, “IMPROVEMENTS IN OR RELATING TO ORGANIC COMPOUNDS” (Givaudan SA, priority 2020, published 2023).

What was measured:
[1] = system: skin explants (Caucasian, Asian, African); test: Ex vivo whitening efficacy on skin explants (Fontana Masson staining, expert scoring of basal cells); format: cell-based, human; conditions: topical daily 14 days, vs untreated, extract 3%, Phenylethyl resorcinol 0.5%, hydroquinone 2%
Protocol: Skin fragments from 3 Asian, 3 African and 3 Caucasian subjects were cut into 1 cm^2 pieces and washed three times using antibiotics. Subcutaneous fat and lower dermis were mechanically removed under a stereomicroscope using a surgical scalpel. Skin biopsies were placed with the epithelium uppermost at an air/liquid interface on culture inserts (filter pore size 12 μm; Costar, VWR International, Fontenay-sous-Bois, France). These inserts were set on twelve wells plate for 14 days at 37° C. in a humidified incubator with 5% CO2. Medium was added to the wells so that the surface of the medium was levelled with the filter. Organ cultures were conserved with Dulbecco's […] (Invitrogen Corporation, Paisley, UK) containing antibiotic, L-glutamine, bovine pituitary extract, growth factors and fetal calf serum (DAP, Neuf-Brisach, France). […] elongata extract 3% (unpurified extract), Phenylethyl resorcinol 0.5% and hydroquinone 2% (SIGMA H9003) as positive control were topically applied daily during 14 days on the epidermis of the skin fragments, in comparison with untreated skin. […] For testing the depigmentation product, the melanin pigment present in the melanocytes and in the contiguous keratinocytes of the basal cell layer of the epidermis from treated skin in comparison with untreated skin is evaluated. Samples were formalin-fixed at day 14 and paraffin-embedded Sections (4 μm) were then stained by Fontana Masson silver method for melanin (see example 4iii). A quantitative numeration of cells containing melanin pigments was made under an optical microscope at ×40 magnification on about 300 basal cells of the epidermis, Two types of cells were counted: • score 1: unpigmented cells or cells presenting rare melanin pigments isolated in the cytoplasm • score 3: cells presenting important melanin pigment in all over the cytoplasm Epidermal melanin content was calculated as the percentage of the epidermal cells in each scoring.

[2] = system: pigmented ageing spots on hands; test: Clinical test, pigmented spots on hands of Caucasian volunteers, Mexameter analysis; format: in vivo, human; conditions: cream 0.3% twice daily
Protocol: The study was a double-blind, randomized and placebo controlled study. The assessment was based on an intra-subject comparison between the results obtained with cream HEX at 3% (active product), cream Phenylethyl resorcinol at 0.3% and the cream placebo. The measurements were taken in controlled-atmosphere at a temperature of 21±1° C. and a humidity of 50*10%. This study was performed on 39 volunteers (healthy Caucasian woman aged from 50 to 75 years, mean age: 61.7±5.6 years) having pigmented ageing spots on their hands.
The study was carried out on 2 groups of around 20 volunteers each (39 volunteer in total aged from […]). A cream formula was applied twice daily on hands. Evaluation was carried out before treatment and after 28 and 56 days. Group 1 has applied placebo on one hand and HEX at 3% on the other hand, and group 2 has tested HEX at 3% on one hand versus Phenylethyl Resorcinol at 0.3% on the other hand.
The measurement is based on the absorption principle. The MEXAMETER MX 18 probe emits radiation of three defined wavelengths. A receiver measures the reflection of the light reflected by the skin. The position of the transmitter and receiver ensures that only diffuse light is measured. With a defined amount of emitted light the amount of light absorbed by the skin can be calculated. Melanin is measured by two wavelengths. […]

[3] = system: pigmented ageing spots on face; test: Clinical test, pigmented spots on face of Asian volunteers, VISIA ageing spot analysis; format: in vivo, human; conditions: cream 0.3% twice daily
Protocol: (§1) The study was a double-blind, randomized and placebo controlled study. The assessment was based on an inter-subject comparison between the results obtained with cream HEX at 3% (active product), cream Phenylethyl resorcinol at 0.3% and the cream placebo. The measurements were taken in controlled-atmosphere at a temperature of 21±1° C. and a humidity of 50±10%. This study was performed on 72 volunteers (healthy Asian woman aged from 45 to 85 years), having pigmented ageing spots on their faces.
The study was carried out on 2 groups of 36 volunteers each (72 volunteer in total). A cream formula was applied twice daily on face. Evaluation was carried out before treatment and after 28 and 56 days. Group 1 has applied placebo on one side of the face and HEX at 3% on the other side of the face Group 2 has tested HEX at 3% on one side of the face versus Phenylethyl Resorcinol at 0.3% on the other side of the face. […]
Under standard light, visible spots can be evaluated, in particular by visualisation of brown or red skin lesions including freckles, acne scars, hyper-pigmentation and vascular lesions. With cross polarized light in combination with Canfield's RBX® Technology brown spots can be evaluated, in particular by analysis of subsurface melanin conditions. […] The results are given in number of lesions, which is a count of lesions detected by the device, regardless of their size or intensity.

[4] = system: pigmented ageing spots on face; test: Clinical test, face of Asian volunteers, spectrocolorimeter measurement; format: in vivo, human; conditions: HEX cream 3% or Phenylethyl resorcinol cream 0.3% twice daily, after 28 and 56 days
Protocol: as §1
The study was carried out on 2 groups of 36 volunteers each (72 volunteer in total). A cream formula was applied twice daily on face. Evaluation was carried out before treatment and after 28 and 56 days. Group 1 has applied placebo on one side of the face and HEX at 3% on the other side of the face Group 2 has tested HEX at 3% on one side of the face versus Phenylethyl Resorcinol at 0.3% on the other side of the face.
Skin colorimetric measurement was done with a MINOLTA CM700-d Spectrophotometer® equipped with a 8 mm diameter head. The Spectrophotometer® converts colours perceived by human to a digital code composed of three parameters:
L*: for clarity (from dark to light),
a*: for the green-to-red spectrum,
b*: for the blue-to-yellow spectrum.
a* and b* are chrominance parameters and L* is a luminance parameter. […]

[5] = system: hyperpigmentation spots on face; test: Clinical test, hyperpigmented spots on face of African volunteers, Mexameter analysis; format: in vivo, human
Protocol: The measurement is based on the absorption principle. The MEXAMETER MX 18 probe emits radiation of three defined wavelengths. A receiver measures the reflection of the light reflected by the skin. The position of the transmitter and receiver ensures that only diffuse light is measured. With a defined amount of emitted light the amount of light absorbed by the skin can be calculated. Melanin is measured by two wavelengths. The wavelengths were chosen according to the different absorption peaks of the melanin pigments. For the measurement of erythema (redness of skin), two different wavelengths are used to measure the absorption capacity of the epidermis. One of them corresponds to the absorption spectrum of haemoglobin. The other wavelength was chosen in order to have other pigments influencing the colour of the skin.
The study was a double-blind, randomized and placebo controlled study. The assessment was based on an inter-subject comparison between the results obtained with cream HEX at 3% (active product), cream Phenylethyl resorcinol at 0.3% and the cream placebo. The measurements were taken in controlled-atmosphere at a temperature of 20° C. and a humidity of 40%. This study was performed on 70 volunteers (aged from 19 to 57 years, having hyperpigmentation spots on their faces.
The study was carried out on 3 groups. A cream formula was applied twice daily on full face. Evaluation was carried out before treatment and after 28 and 56 days. Groups 1 and 2, with 25 volunteers each, have applied placebo and HEX at 3%, respectively, and group 3 with 20 volunteers has applied Phenylethyl Resorcinol at 0.3%.

| Structure (SMILES) | change of percentage of unpigmented cells ([1]; African skin explants) | change of percentage of very pigmented cells ([1]; African skin explants) | change of percentage of unpigmented cells ([1]; Asian skin explants) | change of percentage of very pigmented cells ([1]; Asian skin explants) [%] | change of percentage of unpigmented cells ([1]; Caucasian skin explants) | change of percentage of very pigmented cells ([1]; Caucasian skin explants) | reduction of skin redness compared with placebo [2] | melanin reduction efficacy compared with HEX at 3% ([2]; 28 and 56 days) | reduction of brown spots compared with HEX [3] | reduction of visible spots compared with HEX at 3% [3] | b* parameter on face pigmented spots area [4] | change of melanin content relative to D0 ([5]; HEX cream 3% or Phenylethyl Resorcinol cream 0.3% twice daily, after 56 days) | change of melanin content relative to D0 ([5]; cream 0.3% twice daily, after 28 days) [%] | change of melanin content versus placebo ([5]; cream 0.3%, after 28 days) [%] |
| --- | --- | --- | --- | --- | --- | --- | --- | --- | --- | --- | --- | --- | --- | --- |
| CC(c1ccccc1)c1ccc(O)cc1O (centres unmarked) [Phenylethyl resorcinol, phenylethyl resorcinol] | +91.7% | −22.7% | +110.7% | −29.2 | +38.8% | −4.2% | same efficacy as what we obtained with the placebo | Same melanin reduction efficacy as with HEX at 3% | slightly better than HEX | efficacy very close to those obtained with HEX at 3% | significant reduction of b* parameter | not maintained after 56 days | −2.1 | −4.3 |
| Oc1ccc(O)cc1 [Hydroquinone, hydroquinone] | didn't show any significant results | didn't show any significant results | +54.1% | −25.8 | didn't show any significant impact | didn't show any significant impact | – | – | – | – | – | – | – | – |
